In PubChem BioAssay (NCI):
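How tested: cells in 96-well plates exposed to compound for 48 hours at five concentrations. The concentration for 50% growth inhibition is given as GI50. Definition used: TGI = concentration required for complete inhibition of growth.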

Columns and labels:
Assay in all cases: NCI-60 cell line screen, 48 h
UACC-257 melanoma = system: UACC-257 melanoma
IGROV1 ovarian = system: IGROV1 ovarian
SNB-19 CNS = system: SNB-19 CNS
UO-31 renal = system: UO-31 renal
NCI/ADR-RES ovarian = system: NCI/ADR-RES ovarian
MALME-3M melanoma = system: MALME-3M melanoma
HCC-2998 colon = system: HCC-2998 colon
KM12 colon = system: KM12 colon
HCT-15 colon = system: HCT-15 colon
M14 melanoma = system: M14 melanoma
EKVX NSCLC = system: EKVX NSCLC
NCI-H522 lung = system: NCI-H522 lung
PC-3 prostate = system: PC-3 prostate
RPMI-8226 leukemia = system: RPMI-8226 leukemia
HOP-92 NSCLC = system: HOP-92 NSCLC
COLO 205 colon = system: COLO 205 colon
MOLT-4 leukemia = system: MOLT-4 leukemia
OVCAR-3 ovarian = system: OVCAR-3 ovarian
SK-MEL-28 melanoma = system: SK-MEL-28 melanoma
SW-620 colon = system: SW-620 colon
SF-539 CNS = system: SF-539 CNS
786-0 renal = system: 786-0 renal
HL-60(TB) leukemia = system: HL-60(TB) leukemia
SK-MEL-5 melanoma = system: SK-MEL-5 melanoma
HCT-116 colon = system: HCT-116 colon
A549 NSCLC = system: A549 NSCLC
SF-295 CNS = system: SF-295 CNS
SF-268 CNS = system: SF-268 CNS
CCRF-CEM leukemia = system: CCRF-CEM leukemia
OVCAR-5 ovarian = system: OVCAR-5 ovarian
LOX IMVI melanoma = system: LOX IMVI melanoma
HOP-62 NSCLC = system: HOP-62 NSCLC
SK-MEL-2 melanoma = system: SK-MEL-2 melanoma
U251 CNS = system: U251 CNS
K-562 leukemia = system: K-562 leukemia
DU-145 prostate = system: DU-145 prostate
MCF7 breast = system: MCF7 breast
TK-10 renal = system: TK-10 renal
HS 578T breast = system: HS 578T breast
MDA-MB-435 = system: MDA-MB-435
NCI-H460 lung = system: NCI-H460 lung
OVCAR-4 ovarian = system: OVCAR-4 ovarian
SK-OV-3 ovarian = system: SK-OV-3 ovarian
SNB-75 CNS = system: SNB-75 CNS
MDA-MB-231 breast = system: MDA-MB-231 breast
BT-549 breast = system: BT-549 breast
HT29 colon = system: HT29 colon
NCI-H23 lung = system: NCI-H23 lung
SR leukemia = system: SR leukemia
NCI-H226 lung = system: NCI-H226 lung
SN12C renal = system: SN12C renal
OVCAR-8 ovarian = system: OVCAR-8 ovarian
RXF 393 renal = system: RXF 393 renal
CAKI-1 renal = system: CAKI-1 renal
ACHN renal = system: ACHN renal

Substance H-HIIKKIRTWYRKAWHVLGKV-NH2 has a GI50 (UACC-257 melanoma) of 8.48 µM, a TGI (UACC-257 melanoma) of 59.6 µM and a GI50 (IGROV1 ovarian) of 4.32 µM. The TGI (IGROV1 ovarian) was 28.3 µM, the GI50 (SNB-19 CNS) was 18.3 µM and the TGI (SNB-19 CNS) was 62 µM. For the same substance, the GI50 (UO-31 renal) was 18.6 µM, the TGI (UO-31 renal) was 36.5 µM and the GI50 (NCI/ADR-RES ovarian) was 5.85 µM. It also gave a TGI (NCI/ADR-RES ovarian) of 28.5 µM, a GI50 (MALME-3M melanoma) of 2.29 µM and a TGI (MALME-3M melanoma) of 5.25 µM. It also gave a GI50 (HCC-2998 colon) of 3.88 µM, a TGI (HCC-2998 colon) of 31.2 µM and a GI50 (KM12 colon) of 2.49 µM. It also gave a TGI (KM12 colon) of 6.58 µM, a GI50 (HCT-15 colon) of 4.24 µM and a TGI (HCT-15 colon) of 64.7 µM. It also gave a GI50 (M14 melanoma) of 4.17 µM, a TGI (M14 melanoma) of 22.8 µM and a GI50 (EKVX NSCLC) of 2.37 µM. It also gave a TGI (EKVX NSCLC) of 6.73 µM, a GI50 (NCI-H522 lung) of 11.1 µM and a TGI (NCI-H522 lung) of 63.3 µM. It also gave a GI50 (PC-3 prostate) of 2.79 µM, a TGI (PC-3 prostate) of 9.74 µM and a GI50 (RPMI-8226 leukemia) of 8.62 µM. The TGI (RPMI-8226 leukemia) was 45 µM, the GI50 (HOP-92 NSCLC) was 2.11 µM and the TGI (HOP-92 NSCLC) was 6.75 µM. For the same substance, the GI50 (COLO 205 colon) was 2.11 µM, the TGI (COLO 205 colon) was 4.92 µM and the GI50 (MOLT-4 leukemia) was 14.2 µM. It also gave a TGI (MOLT-4 leukemia) of 57.2 µM, a GI50 (OVCAR-3 ovarian) of 10.4 µM and a TGI (OVCAR-3 ovarian) of 39.3 µM. It also gave a GI50 (SK-MEL-28 melanoma) of 2.61 µM, a TGI (SK-MEL-28 melanoma) of 7.66 µM and a GI50 (SW-620 colon) of 9.53 µM. For the same substance, the TGI (SW-620 colon) was > 100 µM, the GI50 (SF-539 CNS) was 2.14 µM and the TGI (SF-539 CNS) was 5.31 µM. For the same substance, the GI50 (786-0 renal) was 3.37 µM, the TGI (786-0 renal) was 16.6 µM and the GI50 (HL-60(TB) leukemia) was 4.29 µM. For the same substance, the TGI (HL-60(TB) leukemia) was 23.3 µM, the GI50 (SK-MEL-5 melanoma) was 3.94 µM and the TGI (SK-MEL-5 melanoma) was 19.5 µM. For the same substance, the GI50 (HCT-116 colon) was 17.5 µM, the TGI (HCT-116 colon) was 42 µM and the GI50 (A549 NSCLC) was 5.51 µM. The TGI (A549 NSCLC) was > 100 µM, the GI50 (SF-295 CNS) was 4.8 µM and the TGI (SF-295 CNS) was 22.8 µM. The GI50 (SF-268 CNS) was 3.43 µM, the TGI (SF-268 CNS) was 19.8 µM and the GI50 (CCRF-CEM leukemia) was 3.71 µM. For the same substance, the TGI (CCRF-CEM leukemia) was > 100 µM, the GI50 (OVCAR-5 ovarian) was 6.22 µM and the TGI (OVCAR-5 ovarian) was 20.5 µM. The GI50 (LOX IMVI melanoma) was 21.7 µM, the TGI (LOX IMVI melanoma) was 82.3 µM and the GI50 (HOP-62 NSCLC) was 4.59 µM. For the same substance, the TGI (HOP-62 NSCLC) was > 100 µM, the GI50 (SK-MEL-2 melanoma) was 5.31 µM and the TGI (SK-MEL-2 melanoma) was 28.2 µM. The GI50 (U251 CNS) was 7.17 µM, the TGI (U251 CNS) was > 100 µM and the GI50 (K-562 leukemia) was 6.56 µM. The TGI (K-562 leukemia) was > 100 µM, the GI50 (DU-145 prostate) was 4.26 µM and the TGI (DU-145 prostate) was 15.3 µM. For the same substance, the GI50 (MCF7 breast) was 2.05 µM, the TGI (MCF7 breast) was 4.58 µM and the GI50 (TK-10 renal) was 3.24 µM. For the same substance, the TGI (TK-10 renal) was 15.6 µM, the GI50 (HS 578T breast) was 3.56 µM and the TGI (HS 578T breast) was 18.7 µM. It also gave a GI50 (MDA-MB-435) of 5.15 µM, a TGI (MDA-MB-435) of 65.9 µM and a GI50 (NCI-H460 lung) of 3.34 µM. It also gave a TGI (NCI-H460 lung) of 92.4 µM, a GI50 (OVCAR-4 ovarian) of 12.8 µM and a TGI (OVCAR-4 ovarian) of 47.5 µM. It also gave a GI50 (SK-OV-3 ovarian) of 6.36 µM, a TGI (SK-OV-3 ovarian) of 22.2 µM and a GI50 (SNB-75 CNS) of 11.9 µM. The TGI (SNB-75 CNS) was 30.4 µM, the GI50 (MDA-MB-231 breast) was 6.47 µM and the TGI (MDA-MB-231 breast) was 22.3 µM. The GI50 (BT-549 breast) was 12.8 µM, the TGI (BT-549 breast) was 32.1 µM and the GI50 (HT29 colon) was 14.8 µM. The TGI (HT29 colon) was > 100 µM, the GI50 (NCI-H23 lung) was 4.94 µM and the TGI (NCI-H23 lung) was 31.1 µM. The GI50 (SR leukemia) was 7.13 µM, the TGI (SR leukemia) was 87.8 µM and the GI50 (NCI-H226 lung) was 4.15 µM. The TGI (NCI-H226 lung) was 39.2 µM, the GI50 (SN12C renal) was 2.96 µM and the TGI (SN12C renal) was 13 µM. For the same substance, the GI50 (OVCAR-8 ovarian) was 4.74 µM, the TGI (OVCAR-8 ovarian) was > 100 µM and the GI50 (RXF 393 renal) was 4.23 µM. It also gave a TGI (RXF 393 renal) of 25.1 µM, a GI50 (CAKI-1 renal) of 3.32 µM and a TGI (CAKI-1 renal) of 18.3 µM. For the same substance, the GI50 (ACHN renal) was 13.2 µM and the TGI (ACHN renal) was 28.6 µM.
